In patent US7879838B2, “Heteroaryl substituted pyrazinyl-piperazine-piperidines with CXCR3 antagonist activity” (Schering Corporation, priority 2005, dated 2011) one finds IC50 data, which are given here for 44 molecules.

For this assay, the target named is T1, Human CXCR3 (N-delta 4) (Homo sapiens, UniProt P49682).
T1 construct: CD8 leader (N); Flag tag; expressed in transfected cells; membranes prepared
T1 sequence (P49682 5-368 limits assumed): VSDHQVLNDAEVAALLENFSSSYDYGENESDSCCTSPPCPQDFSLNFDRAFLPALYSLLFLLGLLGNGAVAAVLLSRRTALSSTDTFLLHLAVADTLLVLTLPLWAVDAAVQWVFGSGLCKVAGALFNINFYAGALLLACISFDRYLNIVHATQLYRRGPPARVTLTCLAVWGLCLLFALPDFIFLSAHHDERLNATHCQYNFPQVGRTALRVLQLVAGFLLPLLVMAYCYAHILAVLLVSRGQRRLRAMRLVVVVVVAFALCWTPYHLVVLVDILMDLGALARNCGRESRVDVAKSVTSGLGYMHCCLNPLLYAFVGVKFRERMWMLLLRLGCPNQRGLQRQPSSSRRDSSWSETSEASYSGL
Put plainly: Human CXCR3 (N-delta 4) scintillation proximity assay (SPA), [125I] IP-10 binding to Ba/F3-hCXCR3 membranes. An excerpt: The inventive compounds can readily be evaluated to determine activity at The CXCR3 receptors by known methods, such as, for example, Development of Human CXCR3 (N-delta 4) Binding Assay.
Cloning and Expression of Human CXCR3 (N-delta 4):
The DNA encoding human CXCR3 was cloned by PCR using human genomic DNA (Promega, Madison, Wis.) as a template. The PCR primers were designed based on the published sequence of human orphan receptor GPR9 (1) with incorporated restriction sites, a Kozak consensus sequence, CD8 leader and Flag tag. The PCR product was subcloned into the mammalian expression vector pME18Sneo, a derivative of the SR-alpha expression vector (designated as pME18Sneo-hCXCR3 (N-delta 4).
IL-3-dependent mouse pro-B cells Ba/F3 were transfected by electroporation in 0.4 ml Dulbecco's PBS containing 4×10^6 cells with 20 μg of pME18Sneo-hCXCR3 (N-delta 4) plasmid DNA. Cells were pulsed at 400 Volts, 100 OHMs, 960 μFd. The transfected cells were under selection with 1 mg/ml G418 (Life Technologies, Gaithersburg, Md.). G418-resistant Ba/F3 clones were screened for CXCR3 expression by specific binding of [^125I] IP-10 (NEN Life Science Products, Boston, Mass.).
Preparation of Ba/F3-hCXCR3 (N-delta 4) Membranes
Ba/F3 cells expressing human CXCR3 (N-delta 4) were pelleted and resuspended in the lysis buffer containing 10 mM HEPES, pH 7.5 and Complete® protease inhibitors (1 tablet per 100 ml) (Boehringer Mannheim, Indianapolis, Ind.) at a cell density of 20×10^6 cells per ml. After 5 minutes incubation on ice, cells were transferred to 4639 cell disruption bomb (Parr Instrument, Moline, Ill.) and applied with 1,500 psi of nitrogen for 30 minutes on ice. Large cellular debris was removed by centrifugation at 1,000×g. Cell membrane in the supernatant was sedimented at 100,000×g. The membrane was resuspended in the lysis buffer supplemented with 10% sucrose and stored at −80° C. Total protein concentration of the membrane was determined by BCA method from Pierce (Rockford, Ill.).
Human CXCR3 (N-delta 4) Scintillation Proximity Assay (SPA)
For each assay point, 2 μg of membrane was preincubated for 1 hr with 300 μg wheat germ agglutinin (WGA) coated SPA beads (Amersham, Arlington Heights, Ill.) in the binding buffer (50 mM HEPES, 1 mM CaCl2, 5 mM MgCl2, 125 mM NaCl, 0.002% NaN3, 1.0% BSA) at room temperature. The beads were spun down, washed once, resuspended in the binding buffer and transferred to a 96-well Isoplate (Wallac, Gaithersburg, Md.). 25 pM of [^125I] IP-10 with tested compounds in a series of titration were added to start the reaction. After 3 hr reaction at room temperature, the amount of [^125I] IP-10 bound to the SPA beads was determined with a Wallac 1450 Microbeta counter.
The Ki values for the various example compounds of the present invention are given in the afore-mentioned Table 1. From these values, it would be apparent to the skilled artisan that the compounds of the invention have excellent utility CXCR3 antagonists.
(In a scintillation proximity assay essentially only radioactivity close to the scintillant gives light.)

The mark [1] stands for this setting: IC50 rating, 25 pM [125I] IP-10, membranes of Ba/F3 cells expressing human CXCR3 (N-delta 4).

The term IC50 denotes the concentration that inhibits the measured activity by half. Read a low IC50 as greater potency in that assay.

Bounds are passed on as bounds.

Take `CC[C@H]1CN(c2nc(N)c(C(=O)NC(=N)NC)nc2Cl)CCN1C1CCN(C(=O)c2ccc(Cl)nc2N)CC1` [Compound No. 1]: the half-inhibitory concentration (IC50) reads like this: under setting [1], less than 25 nM; (human CXCR3 (N-delta 4) SPA) 0.7 nM. Under setting [1], `CCNC(=N)NC(=O)c1nc(Cl)c(N2CCN(C3CCN(C(=O)c4ccc(Cl)nc4N)CC3)[C@@H](CC)C2)nc1N` [Compound No. 5] displayed an IC50 of less than 25 nM. Molecule `CC[C@H]1CN(c2nc(N)c(C(=O)N[C@H]3CC[C@H]3O)nc2Cl)CCN1C1CCN(C(=O)c2ccc(Cl)nc2N)CC1` [Compound No. 15] registered an IC50 under setting [1] of less than 25 nM. Same read-out and setting: under `CC[C@H]1CN(c2nc(N)c(C(=O)OC)nc2Cl)CCN1C1CCN(C(=O)c2ccc(Cl)nc2N)CC1` [Compound No. 58] stands 25 to 100 nM. Still for that read-out and setting: under `CC[C@H]1CN(c2ncc(C(=O)NC3CC3)nc2C)CCN1C1CCN(C(=O)c2ccc(Cl)nc2N)CC1` [Compound No. 155] stands less than 25 nM; under `CCNC(=O)c1nc(C)c(N2CCN(C3CCN(C(=O)c4ccc(Cl)nc4N)CC3)[C@@H](CC)C2)nc1N` [Compound No. 156], less than 25 nM. The same measure, in the same setting: the value for `CC[C@H]1CN(c2nc(N)c(C(=O)NC3CC3)nc2C)CCN1C1CCN(C(=O)c2ccc(Cl)nc2N)CC1` [Compound No. 157] was less than 25 nM.

Turning to `CC[C@H]1CN(c2nc(N)c(C(=O)NC[C@@H](C)O)nc2Cl)CCN1C1CCN(Cc2ccc(Cl)nc2N)CC1` [compound 2], the half-inhibitory concentration (IC50) under setting [1] is less than 25 nM. As to `CC[C@H]1CN(c2nc(N)c(C(=O)NC(=N)N)nc2Cl)CCN1C1CCN(C(=O)c2ccc(Cl)nc2N)CC1` [compound 3], the IC50 under setting [1] is less than 25 nM. Regarding `CC[C@H]1CN(c2nc(N)c(C(=O)NC3CC3)nc2Cl)CCN1C1CCN(C(=O)c2ccc(Cl)nc2N)CC1` [compound 4], under setting [1], the IC50 was less than 25 nM. On the same count and under the same terms, under `CC[C@H]1CN(c2nc(N)c(C(=O)NC3CC3)nc2Cl)CCN1C1CCN(C(=O)c2cc(F)c(Cl)nc2N)CC1` [compound 6] stands less than 25 nM; under `CC[C@H]1CN(c2nc(N)c(C(=O)NCCO)nc2Cl)CCN1C1CCN(C(=O)c2ccc(Cl)nc2N)CC1` [compound 7], less than 25 nM.

Under setting [1], `CC[C@H]1CN(c2nc(N)c(C(=O)NC[C@@H](C)O)nc2Cl)CCN1C1CCN(C(=O)c2ccc(Cl)nc2N)CC1` [compound 8] came in with an IC50 of less than 25 nM.

The molecule `CC[C@H]1CN(c2nc(N)c(C(=O)N[C@@H]3CC[C@@H]3O)nc2Cl)CCN1C1CCN(C(=O)c2ccc(Cl)nc2N)CC1` [compound 9] returned a half-maximal inhibitory concentration (IC50) under setting [1] of less than 25 nM. Molecule `CC[C@H]1CN(c2ncc(C(N)=O)nc2Cl)CCN1C1CCN(C(=O)c2ccc(Cl)nc2N)CC1` [compound 10] registered a half-inhibitory concentration (IC50) under setting [1] of less than 25 nM. Still for that read-out and setting: under `CC[C@H]1CN(c2ncc(C(=O)NC[C@@H](C)O)nc2Cl)CCN1C1CCN(C(=O)c2ccc(Cl)nc2N)CC1` [compound 11] stands less than 25 nM; under `CC[C@H]1CN(c2nc(N)c(C(=O)NCC(F)(F)F)nc2Cl)CCN1C1CCN(C(=O)c2ccc(Cl)nc2N)CC1` [compound 12], less than 25 nM. Same read-out and setting: under `CC[C@H]1CN(c2nc(N)c(C(=O)NC)nc2Cl)CCN1C1CCN(C(=O)c2cc(F)c(Cl)nc2N)CC1` [compound 13] stands less than 25 nM; under `CC[C@H]1CN(c2nc(N)c(C(=O)NC(=N)NC(C)=O)nc2Cl)CCN1C1CCN(C(=O)c2ccc(Cl)nc2N)CC1` [compound 14], less than 25 nM; under `CC[C@H]1CN(c2nc(N)c(C(=O)NC3CC3)nc2Cl)CCN1C1CCN(C(=O)c2cc(F)c(Cl)nc2Cl)CC1` [compound 16], less than 25 nM. In turn, `CC[C@H]1CN(c2nc(NCCOC)c(C(=O)NC3CC3)nc2Cl)CCN1C1CCN(C(=O)c2ccc(Cl)nc2N)CC1` [compound 17] displayed a 50% inhibitory concentration (IC50) under setting [1] of less than 25 nM.

`CC[C@H]1CN(c2nc(N)c(C(=O)N[C@@H]3CCC[C@H]3O)nc2Cl)CCN1C1CCN(C(=O)c2ccc(Cl)nc2N)CC1` [compound 18] yielded an IC50 under setting [1] of less than 25 nM. Under setting [1], `CC[C@H]1CN(c2nc(N)c(C(=O)NC3CC3)nc2Cl)CCN1C1CCN(C(=O)c2ccc(Cl)nc2Cl)CC1` [compound 19] gave an IC50 of less than 25 nM. Still for that read-out and setting: the value for `CC[C@H]1CN(c2nc(N)c(C(=O)NCCO)nc2Cl)CCN1C1CCN(Cc2ccc(Cl)nc2)CC1` [compound 20] was less than 25 nM; that for `CC[C@H]1CN(c2nc(N)c(C(=O)NCC3CC3)nc2Cl)CCN1C1CCN(C(=O)c2ccc(Cl)nc2N)CC1` [compound 21] was less than 25 nM. The same measure, in the same setting: under `CC[C@H]1CN(c2nc(N)c(C(=O)NCCO)nc2Cl)CCN1C1CCN(C(=O)c2cc(F)c(Cl)nc2Cl)CC1` [compound 22] stands less than 25 nM; under `CC[C@H]1CN(c2nc(N)c(C(=O)NC3(CO)CC3)nc2Cl)CCN1C1CCN(C(=O)c2ccc(Cl)nc2N)CC1` [compound 24], less than 25 nM.

As for `CC[C@H]1CN(c2nc(N)c(C(=O)NCC(C)O)nc2Cl)CCN1C1CCN(C(=O)c2ccc(Cl)nc2N)CC1` (stereo partly drawn) [compound 25], the IC50 under setting [1] is less than 25 nM. `CC[C@H]1CN(c2nc(N)c(C(=O)NCCC#N)nc2Cl)CCN1C1CCN(C(=O)c2ccc(Cl)nc2N)CC1` [compound 26] showed an IC50 under setting [1] of less than 25 nM. On the same count and under the same terms, under `CC[C@H]1CN(c2nc(N)c(C(=O)NC3CCCC3O)nc2Cl)CCN1C1CCN(C(=O)c2ccc(Cl)nc2N)CC1` (stereo partly drawn) [compound 27] stands less than 25 nM. As for `CC[C@H]1CN(c2nc(N)c(C(=O)Nc3ncc[nH]3)nc2Cl)CCN1C1CCN(C(=O)c2ccc(Cl)nc2N)CC1` [compound 28], under setting [1], the IC50 is less than 25 nM.

With `CC[C@H]1CN(c2nc(N)c(C(=O)NCCO)nc2Cl)CCN1C1CCN(Cc2ccc(Cl)nc2Cl)CC1` [compound 29], under setting [1], the IC50 is less than 25 nM. Same read-out and setting: the value for `CC[C@H]1CN(c2nc(NCCC(=O)OC)c(C(=O)NC3CC3)nc2Cl)CCN1C1CCN(C(=O)c2ccc(Cl)nc2N)CC1` [compound 30] was less than 25 nM; that for `CC[C@H]1CN(c2nc(N)c(C(N)=O)nc2Cl)CCN1C1CCN(Cc2ccc(Cl)nc2N)CC1` [compound 31] was less than 25 nM. On to `CC[C@H]1CN(c2nc(N)c(C(=O)NCC3(O)CC3)nc2Cl)CCN1C1CCN(C(=O)c2ccc(Cl)nc2N)CC1` [compound 32], for which the IC50 under setting [1] was less than 25 nM. In turn, `CC[C@H]1CN(c2nc(N)c(C(=O)Nc3ccon3)nc2Cl)CCN1C1CCN(C(=O)c2ccc(Cl)nc2N)CC1` [compound 33] displayed an IC50 under setting [1] of less than 25 nM. `CC[C@H]1CN(c2nc(N)c(C(=O)NCCNS(C)(=O)=O)nc2Cl)CCN1C1CCN(Cc2ccc(Cl)nc2N)CC1` [compound 34] registered an IC50 under setting [1] of less than 25 nM. In the case of `CC[C@H]1CN(c2nc(N)c(C(N)=O)nc2Cl)CCN1C1CCN(C(=O)c2ccc(Cl)nc2N)CC1` [compound 35], the IC50 under setting [1] was less than 25 nM. Still for that read-out and setting: the value for `CC[C@H]1CN(c2nc(N)c(C(=O)N[C@@H]3C[C@@H]3F)nc2Cl)CCN1C1CCN(C(=O)c2ccc(Cl)nc2N)CC1` [compound 37] was less than 25 nM.

The molecule `CC[C@H]1CN(c2nc(NC(=O)N(C)C)c(C(=O)NC3CC3)nc2Cl)CCN1C1CCN(C(=O)c2ccc(Cl)nc2N)CC1` [compound 38] showed a half-inhibitory concentration (IC50) under setting [1] of less than 25 nM. Turning to `CC[C@H]1CN(c2nc(N)c(C(=O)NCCO)nc2Cl)CCN1C1CCN(Cc2ccc(OC)nc2)CC1` [compound 39], the IC50 under setting [1] is less than 25 nM. Same read-out and setting: under `CC[C@H]1CN(c2nc(N)c(C(=O)NCCO)nc2Cl)CCN1C1CCN(C(=O)c2ccc(Cl)nc2Cl)CC1` [compound 40] stands less than 25 nM. On the same count and under the same terms, under `CC[C@H]1CN(c2nc(N)c(C(N)=O)nc2Cl)CCN1C1CCN(C(=O)c2cc(F)c(Cl)nc2N)CC1` [compound 41] stands less than 25 nM; under `CC[C@H]1CN(c2nc(N)c(C(=O)N[C@H]3CCC[C@@H]3O)nc2Cl)CCN1C1CCN(C(=O)c2ccc(Cl)nc2N)CC1` [compound 42], less than 25 nM.
